# Legend:
# [1] = target: T1, CMV polymerase (Human cytomegalovirus, UniProt P08546); experiment: modified version of the HCMV polymerase assay (100% DMSO dilution, DTT, different enzyme lot); type: biochemical; settings: Table 3; for inhibition at 6.25 µM: Concentration 6.25 uM; for inhibition at 12.5 µM: Concentration 12.5 uM; for inhibition at 25 µM: Concentration 25 uM; for inhibition at 50 µM: Concentration 50 uM; for inhibition at 100 µM: Concentration 100 uM; for IC50: read-out: IC50; for inhibition at 3.13 µM: Concentration 3.13 uM; for inhibition at 200 µM: Concentration 200 uM
# T1 construct: made in house; host or cells: recombinant baculovirus-infected SF-9 cells
# T1 sequence (P08546 whole entry): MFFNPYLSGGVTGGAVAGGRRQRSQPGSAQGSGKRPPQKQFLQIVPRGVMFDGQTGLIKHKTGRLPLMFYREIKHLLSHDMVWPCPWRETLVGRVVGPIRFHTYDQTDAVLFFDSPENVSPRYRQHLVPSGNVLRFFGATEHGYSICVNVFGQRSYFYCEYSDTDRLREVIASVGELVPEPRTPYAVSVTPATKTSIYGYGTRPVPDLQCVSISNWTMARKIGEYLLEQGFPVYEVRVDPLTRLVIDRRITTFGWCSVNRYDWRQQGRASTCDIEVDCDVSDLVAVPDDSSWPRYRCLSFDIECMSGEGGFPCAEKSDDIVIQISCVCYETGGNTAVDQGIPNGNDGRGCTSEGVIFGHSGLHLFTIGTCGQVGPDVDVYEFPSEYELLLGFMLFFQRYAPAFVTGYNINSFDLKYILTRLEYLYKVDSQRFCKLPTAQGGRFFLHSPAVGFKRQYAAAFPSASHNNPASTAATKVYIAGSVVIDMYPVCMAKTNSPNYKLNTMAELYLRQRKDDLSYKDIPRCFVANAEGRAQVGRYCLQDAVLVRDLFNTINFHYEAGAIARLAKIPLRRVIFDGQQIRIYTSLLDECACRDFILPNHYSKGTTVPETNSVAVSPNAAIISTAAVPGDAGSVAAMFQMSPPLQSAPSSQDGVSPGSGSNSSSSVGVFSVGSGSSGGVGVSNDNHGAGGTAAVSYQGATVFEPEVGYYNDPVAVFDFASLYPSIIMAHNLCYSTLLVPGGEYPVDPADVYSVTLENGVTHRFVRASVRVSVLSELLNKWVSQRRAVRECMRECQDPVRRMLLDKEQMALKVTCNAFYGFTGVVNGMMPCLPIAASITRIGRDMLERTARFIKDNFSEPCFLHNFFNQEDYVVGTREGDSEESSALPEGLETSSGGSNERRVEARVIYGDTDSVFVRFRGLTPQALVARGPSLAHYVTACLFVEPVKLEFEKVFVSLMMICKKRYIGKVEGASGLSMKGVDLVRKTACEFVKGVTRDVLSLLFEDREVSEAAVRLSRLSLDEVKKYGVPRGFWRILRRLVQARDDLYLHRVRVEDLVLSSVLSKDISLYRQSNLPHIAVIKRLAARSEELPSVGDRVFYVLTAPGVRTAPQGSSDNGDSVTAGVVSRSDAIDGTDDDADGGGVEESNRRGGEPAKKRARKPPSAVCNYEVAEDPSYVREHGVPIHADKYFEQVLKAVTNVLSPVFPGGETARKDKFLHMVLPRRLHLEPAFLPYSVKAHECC
# Description: The HCMV polymerase assay is performed using a scintillation proximity assay (SPA) as described in several references, such as N. D. Cook, et al., Pharmaceutical Manufacturing International, pages 49-53 (1992); K. Takeuchi, Laboratory Practice, September issue (1992); U.S. Pat. No. 4,568,649 (1986); which are incorporated by reference herein. Reactions are performed in 96-well plates. The assay is conducted in 100 μl volume with 5.4 mM HEPES (pH 7.5), 11.7 mM KCl, 4.5 mM MgCl2, 0.36 mg/ml BSA, and 90 nM ^3H-dTTP. Assays are run with and without CHAPS, (3-[(3-Cholamidopropyl)-dimethylammonio]-1-propane-sulfonate) at a final concentration of 2 mM. HCMV is diluted in enzyme dilution buffer containing 50% glycerol, 250 mM NaCl, 10 mM HEPES (pH 7.5), 100 pg/ml BSA, and 0.01% sodium azide. The HCMV polymerase, which is expressed in recombinant baculovirus-infected SF-9 cells and purified according to literature procedures, is added at 10% (or 10 μl) of the final reaction volume, i.e., 100 μl. Compounds are diluted in 50% DMSO and 10 μl are added to each well. Control wells contain an equivalent concentration of DMSO. Unless noted otherwise, reactions are initiated via the addition of 6 nM biotinylated poly(dA)-oligo(dT) template/primer to reaction mixtures containing the enzyme, substrate, and compounds of interest. Plates are incubated in a 25° C. of 37° C. H2O bath and terminated via the addition of 40 μl/reaction of 0.5 M EDTA (pH 8) per well. Reactions are terminated within the time-frame during which substrate incorporation is linear and varied depending upon the enzyme and conditions used, i.e., 30 min. for HCMV polymerase. Ten μl of streptavidin-SPA beads (20 mg/ml in PBS/10% glycerol) are added following termination of the reaction. Plates are incubated 10 min. at 37° C., then equilibrated to room temperature, and counted on a Packard Topcount. Linear regressions are performed and IC50's are calculated using computer software. Results of the testing of compounds of the present invention in this assay are shown in Tables 1, 2, 5, 9, 10, 11, 13 (except for the last compound which was tested under modified conditions) and 14 below.
# A modified version of the above HCMV polymerase assay is performed as described above, but with the following changes: Compounds are diluted in 100% DMSO until final dilution into assay buffer. In the previous assay, compounds are diluted in 50% DMSO. 4.5 mM dithiotherotol (DTT) is added to the polymerase buffer.
Compound,inhibition at 6.25 µM [1] [%],inhibition at 12.5 µM [1] [%],inhibition at 25 µM [1] [%],inhibition at 50 µM [1] [%],inhibition at 100 µM [1] [%],IC50 [1] [µM],melting point [°C],inhibition at 3.13 µM [1] [%],inhibition at 200 µM [1] [%]
"Cc1ccc2c(Cl)cc(S(=O)(=O)NCCCc3ccccc3)c(O)c2n1 [Example 34, 5-Chloro-8-hydroxy-2-methyl-N-(3-phenylpropyl)-7-quinoline-sulfonamide]",21,57,63,54,97,17.2,131 to 134,,
"Cc1ccc2c(Cl)cc(S(=O)(=O)NCCOc3ccccc3)c(O)c2n1 [Example 35, 5-Chloro-8-hydroxy-2-methyl-N-(2-phenoxyethyl)-7-quinoline-sulfonamide]",41,44,,89,96,10,106 to 107,31,
"Cc1ccc2c(Cl)cc(S(=O)(=O)NCCCN3CCOCC3)c(O)c2n1 [Example 36, 5-Chloro-8-hydroxy-2-methyl-N-[3-(4-morpholinyl)propyl]-7-quinoline-sulfonamide]",-3,6,0,15,3,> 200,245 to 257,-1,19
"Cc1ccc2c(Cl)cc(S(=O)(=O)NCCCn3ccnc3)c(O)c2n1 [Example 37, 5-Chloro-8-hydroxy-N-[3-(1H-imidazol-1-yl)propyl]-2-methyl-7-quinolinesulfonamide]",3,12,21,50,55,72.3,194 to 196,,
"Cc1ccc2c(Cl)cc(S(=O)(=O)NC(c3ccccc3)c3ccccc3)c(O)c2n1 [Example 38, 5-Chloro-N-(diphenylmethyl)-8-hydroxy-2-methyl-7-quinoline-sulfonamide]",36,58,62,96,97,10.5,115 to 119,,
"Cc1ccc2c(Cl)cc(S(=O)(=O)N[C@H](C)c3ccccc3)c(O)c2n1 [Example 39, (R)-5-Chloro-8-hydroxy-2-methyl-N-(1-phenylethyl)-7-quinolinesulfonamide]",28,43,41,79,71,21.6,84 to 88,16,90
"Cc1ccc2c(Cl)cc(S(=O)(=O)N[C@@H](C)c3ccccc3)c(O)c2n1 [Example 40, (S)-5-Chloro-8-hydroxy-2-methyl-N-(1-phenylethyl)-7-quinolinesulfonamide]",36,47,53,80,94,13.7,83 to 87,22,

# From patent US6500842B1, “8-hydroxy-7-substituted quinolines as anti-viral agents” (Pharmacia & Upjohn Company, priority 1996, dated 2002)
